Assays:
Format in all cases: biochemical, guinea pig (hepatic cytosol)
[1] = tested on: transformed AhR/ARNT complex; assay: size exclusion of biotin-DRE/AhR/ARNT/anti-ARNT complex followed by capture on neutravidin ELISA plates; conditions: FIG. 5, OD at 405 nm
Protocol: Size-exclusion of biotin-DRE/AhR/ARNT/anti-ARNT complex followed by capture on neutravidin ELISA plates and detection with anti-rabbit/alkaline phosphatase conjugate.
Diethanolamine buffer was prepared by dissolving 0.4 g Magnesium chloride hexahydrate, 0.8 g sodium azide, 338 mL diethanolamine in 2.5 L deionized water, adjusting pH to 9.8 with concentrated HCl, and adjusting volume to 4 liters.
PNPP stock was prepared fresh by dissoving two 15 mg tablets of para-nitro phenyl phosphate (Sigma, St. Louis, Mo.) in 20 mL diethanolamine buffer.
The same size exclusion column operating conditions were used as described above, except the DRE used was B-ERD oligo (SEQ. ID. #3) and DRE-D oligo (SEQ. ID #1)hybridized as described in methods. […]
Samples were incubated for 2 hours at room temperature as described above to achieve transformation/binding events then put on ice. […] The plate was incubated 2 hours, washed 3 times with 300 uL per well PBS plus 0.02% Tween 20, incubated 1 hour with 200 uL per well 1:1000 anti-rabbit/alkaline phosphatase conjugate in PBS plus 0.02% Tween 20 and 0.1% bovine serum albumin, washed 3 times with 300 uL per well PBS plus Tween 20 and developed 2 hours with 200 uL per well PnPP stock, and the optical density read at 405 nm in an ELISA spectrophotometer.

[2] = molecular target: T1, transformed Ah receptor/ARNT complex (Cavia porcellus, UniProt Q6J287); assay: Ah-ELISA, optimization of salt concentration; design: from tissue; host or cells: hepatic cytosol of male Hartley guinea pigs (animals from Cornell Research Animal Resources)
Protocol: The reagents and ELISA plate were prepared as described in Example 7, except the anti-Rabbit/alkaline phosphatase (Sigma, St. Louis, Mo.) was prepared to make a 1:4000 dilution. The final DRE dilution was 31.2 pmol per well. The final dilution of anti-ARNT was 0.275 ug per mL. The DRE was 1/32 of the highest dilution, which corresponds to a final dilution of 0.25 nmol/uL hybridized DRE x 10.6 uL DRE/1700 uL cytosol or 31.2 pmol per well. All other concentrations were the same. All assays were run at approximately 30° C.
The salt concentration during cytosol incubation was varied from 150 mM to 255 mM NaCl at 15 mM increments with a 0 mM NaCl control for with either DMSO or TCDD to determine the effect of salt concentration on background detection. Thus, the assay was run on samples with DMSO (-) or TCDD (+) added at the concentrations taught in Example 7.

[3] = molecular target: T1, transformed Ah receptor/ARNT complex; assay: Ah-ELISA dose response using PnPP detection; design: from tissue; host or cells: hepatic cytosol of male Hartley guinea pigs (animals from Cornell Research Animal Resources); conditions: for Average Optical Density: 405 nm, PnPP 58 minutes
Protocol: The reagents and ELISA plate were prepared as described in Example 9 with the standard PNPP detection technique. The TCDD concentration was varied tested at 0, 0.016, 0.031, 0.063, 0.125, 0.25, 0.5, and 1.0 nM. After washing the plates PnPP stock was added to each well (200 uL) and the plate was incubated for 1 hour (actually 58 minutes for data shown below), at which time it was read at 405 nm in an ELISA plate reader and milli O.D. recorded.

T1 sequence (Q6J287 1-846): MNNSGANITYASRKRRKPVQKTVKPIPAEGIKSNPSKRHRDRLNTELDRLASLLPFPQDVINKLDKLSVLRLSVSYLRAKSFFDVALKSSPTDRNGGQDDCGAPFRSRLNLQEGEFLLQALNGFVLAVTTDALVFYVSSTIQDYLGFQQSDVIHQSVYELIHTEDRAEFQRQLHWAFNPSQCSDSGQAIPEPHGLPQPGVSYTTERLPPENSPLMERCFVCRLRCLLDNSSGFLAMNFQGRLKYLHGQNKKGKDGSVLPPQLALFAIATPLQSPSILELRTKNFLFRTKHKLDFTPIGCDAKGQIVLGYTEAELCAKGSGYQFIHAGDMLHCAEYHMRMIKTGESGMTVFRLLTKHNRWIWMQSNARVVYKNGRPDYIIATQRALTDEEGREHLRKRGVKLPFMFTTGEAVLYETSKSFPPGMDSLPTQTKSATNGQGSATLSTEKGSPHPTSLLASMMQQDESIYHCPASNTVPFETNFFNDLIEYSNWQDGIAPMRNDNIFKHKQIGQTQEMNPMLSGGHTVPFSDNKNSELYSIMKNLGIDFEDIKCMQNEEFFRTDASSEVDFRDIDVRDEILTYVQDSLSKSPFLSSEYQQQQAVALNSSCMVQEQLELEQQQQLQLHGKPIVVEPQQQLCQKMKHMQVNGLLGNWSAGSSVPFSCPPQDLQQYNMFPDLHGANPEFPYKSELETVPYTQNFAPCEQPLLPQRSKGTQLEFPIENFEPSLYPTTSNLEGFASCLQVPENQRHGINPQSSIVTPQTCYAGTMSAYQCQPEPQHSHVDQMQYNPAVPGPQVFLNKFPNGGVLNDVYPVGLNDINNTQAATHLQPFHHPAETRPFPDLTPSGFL
T1 sequence (Q0WXX3 1-790 partner): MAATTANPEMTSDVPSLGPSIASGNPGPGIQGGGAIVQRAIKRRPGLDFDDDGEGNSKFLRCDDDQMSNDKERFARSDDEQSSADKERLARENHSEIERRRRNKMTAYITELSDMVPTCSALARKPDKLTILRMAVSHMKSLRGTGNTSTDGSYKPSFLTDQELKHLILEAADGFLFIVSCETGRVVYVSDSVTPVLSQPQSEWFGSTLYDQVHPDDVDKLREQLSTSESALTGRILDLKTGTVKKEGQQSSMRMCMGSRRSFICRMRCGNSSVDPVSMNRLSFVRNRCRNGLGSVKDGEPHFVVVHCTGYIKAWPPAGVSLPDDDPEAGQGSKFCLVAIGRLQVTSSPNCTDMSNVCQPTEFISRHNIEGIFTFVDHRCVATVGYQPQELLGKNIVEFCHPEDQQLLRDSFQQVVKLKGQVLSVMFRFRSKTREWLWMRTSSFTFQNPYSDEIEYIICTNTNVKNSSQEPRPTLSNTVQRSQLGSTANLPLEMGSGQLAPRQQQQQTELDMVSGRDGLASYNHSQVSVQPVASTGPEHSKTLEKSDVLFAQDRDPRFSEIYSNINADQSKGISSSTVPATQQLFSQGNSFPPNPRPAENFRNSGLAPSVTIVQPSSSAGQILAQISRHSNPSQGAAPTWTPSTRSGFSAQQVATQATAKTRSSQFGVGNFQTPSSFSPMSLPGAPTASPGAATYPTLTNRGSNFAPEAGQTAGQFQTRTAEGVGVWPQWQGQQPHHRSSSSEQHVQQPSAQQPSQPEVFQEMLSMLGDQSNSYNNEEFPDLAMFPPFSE

In the case of Clc1cc2c(cc1Cl)Oc1cc(Cl)c(Cl)cc1O2 [TCDD, 2,3,7,8-tetrachlorodibenzo-p-dioxin], the “TCDD-dependent peak, fractions” value [1] is reported as 18-28 fractions, the DIFF ([2]; 0 mM NaCl) is reported as 1879 and the RATIO ([2]; 0 mM NaCl) is reported as 6.298. The “ELISA signal (+)” value ([2]; 0 mM NaCl, TCDD (+)) was 2233, the DIFF ([2]; 150 mM NaCl) was 2587 and the RATIO ([2]; 150 mM NaCl) was 18.03. For the same compound, the “ELISA signal (+)” value ([2]; 150 mM NaCl, TCDD (+)) was 2739, the DIFF ([2]; 165 mM NaCl) was 2625 and the RATIO ([2]; 165 mM NaCl) was 21. For the same compound, the “ELISA signal (+)” value ([2]; 165 mM NaCl, TCDD (+)) was 2756, the DIFF ([2]; 180 mM NaCl) was 2661 and the RATIO ([2]; 180 mM NaCl) was 25.96. The “ELISA signal (+)” value ([2]; 180 mM NaCl, TCDD (+)) was 2767, the DIFF ([2]; 195 mM NaCl) was 2609 and the RATIO ([2]; 195 mM NaCl) was 26.35. For the same compound, the “ELISA signal (+)” value ([2]; 195 mM NaCl, TCDD (+)) was 2712, the DIFF ([2]; 210 mM NaCl) was 2215 and the RATIO ([2]; 210 mM NaCl) was 26.29. The “ELISA signal (+)” value ([2]; 210 mM NaCl, TCDD (+)) was 2303, the DIFF ([2]; 225 mM NaCl) was 1697 and the RATIO ([2]; 225 mM NaCl) was 21.89. For the same compound, the “ELISA signal (+)” value ([2]; 225 mM NaCl, TCDD (+)) was 1779, the DIFF ([2]; 240 mM NaCl) was 1333 and the RATIO ([2]; 240 mM NaCl) was 16.76. The “ELISA signal (+)” value ([2]; 240 mM NaCl, TCDD (+)) was 1418, the DIFF ([2]; 255 mM NaCl) was 1109 and the RATIO ([2]; 255 mM NaCl) was 12.07. The “ELISA signal (+)” value ([2]; 255 mM NaCl, TCDD (+)) was 1210, the DIFF ([2]; column S9) was 86.67 and the RATIO ([2]; column S9) was 1.667. The “ELISA signal (+)” value ([2]; column S9, TCDD (+)) was 216.6, the “salt concentration giving best ratio of background to detection of TCDD” value ([2]; during cytosol incubation) was 180-195 mM NaCl and the “Average Optical Density” value ([3]; 0.016 nM TCDD) was 0.3. For the same compound, the “Average Optical Density” value ([3]; 0.031 nM TCDD) was 0.338, the “Average Optical Density” value ([3]; 0.063 nM TCDD) was 0.4 and the “Average Optical Density” value ([3]; 0.125 nM TCDD) was 0.527. The “Average Optical Density” value ([3]; 0.25 nM TCDD) was 0.804, the “Average Optical Density” value ([3]; 0.5 nM TCDD) was 1.409 and the “Average Optical Density” value ([3]; 1 nM TCDD) was 2.155. It also gave an EC50 ([3]; PnPP detection, FIG. 6) of roughly 248 pM.
